# Article PMC5573408, “Pepcan-12 (RVD-hemopressin) is a CB2 receptor positive allosteric modulator constitutively secreted by adrenals and in liver upon tissue damage” (Scientific Reports, 2017)
# “And” between values parts separate entries of the source, which are not always exact repeats. Equal entries are not always repeated. No end group written: not given here.
# Experiments:
# hCB2 receptor [1] = molecular target: T1, hCB2 receptor (Homo sapiens, UniProt P34972); experiment: Equilibrium binding / displacement of fluorescent pepcan-F4 on CHO-K1-hCB2 cells; set-up: expressed in transfected cells; host or cells: CHO-K1; details: for Ki: 100 nM pepcan-F4
# Procedure: The equilibrium dissociation constant (Kd value) of the fluorescein-labeled pepcan-12 derivative pepcan-F4 was determined using CHO-K1-hCB2 cells as previously described. Equilibrium saturation binding was determined experimentally, and maximal specific binding (saturation) was reached already at 5 min at 37 °C. Different concentrations of pepcans and 100 nM pepcan-F4 were incubated together with […] suspended in 200 μL of binding buffer in silanized plastic tubes, under shaking for 60 min at 37 °C. After centrifugation at 4 °C and washing with ice-cold binding buffer, the cells were resuspended in ice-cold PBS and transferred into 96-well black plates, where the fluorescence intensities were measured using a Tecan Farcyte reader (485 nm excitation/535 nm emission). The specific binding was determined after washing and subtracting the nonspecific fluorescence calculated in parallel experiments carried out in non-transfected CHO cells.
# hCB2 receptor [2] = molecular target: T1, hCB2 receptor; experiment: [35S]GTPγS assay on hCB2 membranes; assay type: biochemical; set-up: expressed in transfected cells; host or cells: CHO-K1; details: for EC50 / [35S]GTPγS assay Max. Effect: 2-AG, mean (95% CI)
# Procedure: Assays were performed as previously described. Clean membranes expressing hCB2 were diluted in silanized plastic tubes with GTPγS binding buffer (50 mM Tris-HCl, 3 mM MgCl2, 0.2 mM EGTA and 100 mM NaCl at pH 7.4 supplemented with 0.5% fatty acid-free BSA) in the presence of 10 μM of GDP and 0.1 nM of [^35S]GTPγS. The mixture was kept on ice until the binding reaction was started by adding the vehicle or compounds. Non-specific binding was measured in presence of 10 μM GTPγS. The tubes were incubated at 30 °C for 90 min under shaking and then put on ice to stop the reaction. An aliquot (185 μL) of the reaction mixture was rapidly filtered through a 96-well microplate bonded with GF/B glass fibre filters previously pre-soaked with ice-cold washing buffer (50 mM of Tris-HCl pH 7.4 plus 0.1% fatty acid-free BSA). The filters were washed six times with 180 µL of washing buffer under vacuum. The radioactivity was measured after the addition of 45 µL of MicroScint20 scintillation cocktail. Specific binding was calculated by subtracting the residual radioactivity signal obtained in presence of an excess of GTPγS and the results were expressed as % of vehicle control.
# hCB2 receptor [3] = molecular target: T1, hCB2 receptor; experiment: cAMP assay in CHO-K1-hCB2 cells (GloSensor); assay type: cell-based; set-up: expressed in transfected cells; host or cells: CHO-K1; details: for EC50: 2-AG, mean (95% CI)
# Procedure: cAMP assays were performed in CHO-K1-hCB2 stably transfected with the pGloSensorTM 22-F plasmid (Promega) as previously described. Briefly, cells were seeded in 96-well plate and after attachment the medium was replaced by 40 µL of equilibration medium (GloSensor™ cAMP Reagent diluted in 5% v v^−1 of CO2-independent medium plus 10% FBS). The plates were incubated for 2 h at RT in the dark. […] Chemiluminescence was monitored continuously starting from immediately after the addition and for 30 min (keeping the plate at RT and in the dark). Basal levels of chemiluminescence (cells plus IBMX and vehicle without forskolin) were subtracted to the measured values. Results were normalized by subtracting the residual cAMP production and expressed as % of vehicle control.
# hCB2 receptor [4] = molecular target: T1, hCB2 receptor; experiment: Radioligand binding assays with [3H]CP55,940 and [3H]WIN55,212-2 on CHO-K1-hCB2 membranes; set-up: expressed in transfected cells; host or cells: CHO-K1; details: for Kb: pKB, ternary complex model; for enhancement of [3H]CP55,940 and [3H]WIN55,212-2 receptor binding: 100 nM and 1 μM
# Procedure: After the incubation time, membrane suspensions were rapidly filtered through a 0.1% polyethyleneimine presoaked 96-well microplate bonded with GF/B glass fiber filters (UniFilter-96 GF/B, PerkinElmer Life Sciences) under vacuum and washed 12 times with 150 μL of ice-cold binding buffer Filters were added with 40 μL of MicroScint20 scintillation liquid, and radioactivity was measured with the Trilux top counter (PerkinElmer Life Sciences). Data were collected from 3–10 independent experiments, each performed in triplicate, and the nonspecific binding was subtracted. The results are expressed as a percentage of vehicle-treated samples.
# hCB2 receptor [5] = molecular target: T1, hCB2 receptor; experiment: Dissociation kinetics of [3H]CP55,940 by isotopic dilution; assay type: binding; set-up: expressed in transfected cells; details: 1 μM CP55,940 added to bound [3H]CP55,940 (0.5 nM), 300 nM pepcan-12
# Procedure: Dissociation kinetics experiments were performed as described before. […] […] […] After the incubation time, membrane suspensions were rapidly filtered through a 0.1% polyethyleneimine presoaked 96-well microplate bonded with GF/B glass fiber filters and washed as described above.
# T1 sequence (P34972 whole entry): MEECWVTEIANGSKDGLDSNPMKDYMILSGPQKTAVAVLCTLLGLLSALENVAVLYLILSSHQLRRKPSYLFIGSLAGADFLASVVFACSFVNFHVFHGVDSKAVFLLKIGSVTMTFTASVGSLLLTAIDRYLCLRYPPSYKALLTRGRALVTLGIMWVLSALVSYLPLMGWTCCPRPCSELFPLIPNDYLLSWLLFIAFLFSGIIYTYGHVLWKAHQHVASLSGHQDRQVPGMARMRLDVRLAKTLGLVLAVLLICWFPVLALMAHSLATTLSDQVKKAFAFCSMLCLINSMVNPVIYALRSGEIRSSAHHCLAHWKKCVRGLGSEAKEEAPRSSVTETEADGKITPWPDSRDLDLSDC
compound,measurement,setting,value
HAHKLRVDPVNFKLLSH [Pepcan-17],Ki,hCB2 receptor [1],183 ± 39.4 nM
"CCCCC/C=C\C/C=C\C/C=C\C/C=C\CCCC(=O)OC(CO)CO [Pepcan 2-AG, 2-arachidonoyl glycerol]",EC50,hCB2 receptor [2]; pepcan-12 0 nM,95.8 nM
same,[35S]GTPγS assay Max. Effect,hCB2 receptor [2]; pepcan-12 0 nM,235 (220–251) % of crtl
same,EC50,hCB2 receptor [2]; pepcan-12 10 nM,64.9 nM
same,[35S]GTPγS assay Max. Effect,hCB2 receptor [2]; pepcan-12 10 nM,238 (221–251) % of crtl
same,EC50,hCB2 receptor [2]; pepcan-12 30 nM,40.9 nM
same,[35S]GTPγS assay Max. Effect,hCB2 receptor [2]; pepcan-12 30 nM,254 (237–272) % of crtl
same,EC50,hCB2 receptor [2]; pepcan-12 100 nM,35.4 nM
same,[35S]GTPγS assay Max. Effect,hCB2 receptor [2]; pepcan-12 100 nM,291 (265–318) % of crtl
same,EC50,hCB2 receptor [3]; pepcan-12 0 nM,92.1 nM
same,EC50,hCB2 receptor [3]; pepcan-12 10 nM,102 nM
same,EC50,hCB2 receptor [3]; pepcan-12 30 nM,25.1 nM
same,EC50,hCB2 receptor [3]; pepcan-12 100 nM,12.4 nM
HKLRVDPVNFKLLSH [Pepcan-15],Ki,hCB2 receptor [1],77.8 ± 8.2 nM
RVDPVNFKLLSH [Pepcan-12],Kb,"hCB2 receptor [4]; [3H]CP55,940 bound",58.9 nM
same,Kb,"hCB2 receptor [4]; [3H]WIN55,212-2 bound",53.7 nM
same,Ki,hCB2 receptor [1],44.7 nM and ~50 nM
same,Half-life (fast),hCB2 receptor [5],0.844 (0.703 to 1.057) min
same,Half-life (slow),hCB2 receptor [5],49.90 (29.3 to 169.3) min
pepcan-F4: C-terminal fluorescence-labeled (fluorescein) pepcan-12 conjugate (RVDPVNFKLLSH; synthetic pepcan-12 (alpha-hemoglobin fragment),Kd,"hCB2 receptor [1]; specific saturation curve, read-out: apparent Kd for hCB2 receptors",123 ± 41.2 nM
"SALSDLHAHKLRVDPVNFKLLSH [Pepcan-23, putative precursor of pepcan-12]","enhancement of [3H]CP55,940 and [3H]WIN55,212-2 receptor binding",hCB2 receptor [4],did not exhibit any receptor interaction
KLRVDPVNFKLLSH [Pepcan-14],effect on [35S]GTPγS binding in absence of agonist,hCB2 receptor [2]; no orthosteric ligand,Lack of effects
same,"enhancement of [3H]CP55,940 and [3H]WIN55,212-2 receptor binding",hCB2 receptor [4],weaker yet still significant effects
same,effect on cAMP levels in absence of agonist,hCB2 receptor [3]; no orthosteric ligand,Lack of effects
SDLHAHKLRVDPVNFKLLSH [Pepcan-20],Ki,hCB2 receptor [1],> 10000 nM
